Laboratory results from US7928078B2, “Conjugates of immune cell specific macrolide compounds with anti-inflammatory compounds for improved cellular targeting of anti-inflammatory therapy” (GlaxoSmithKline Istrazivacki Centar Zagreb D.O.O., priority 2001, dated 2011).

Legend:
[1] = tested on: OVA-induced lung eosinophilia; test: Model of lung eosinophilia in mice; assay type: in vivo, Balb/C mice; conditions: daily i.n. or i.p., different doses, 48 hours after OVA, t-test, p<0.05
Description: Model of Lung Eosinophilia in Mice
Male Balb/C mice with a body weight of 20-25 g were randomly divided into groups. They were sensibilized by an i.p. injection of ovalbumine (OVA, Sigma) on zero day and on the fourteenth day. On the twentieth day the mice were subjected to a provocative test by i.n. application of OVA (positive control or test groups) or PBS (negative control). 48 hours after i.n. application of OVA, the animals were anesthetized and the lungs were rinsed with 1 ml of PBS. The cells were separated on Cytospin 3 cytocentrifuge (Shandon). The cells were stained in Diff-Quick (Dade) and the percentage of eozinophiles was determined by differential counting of at least 100 cells.
Fluticasone and beclomethasone were used as standard substances under positive and negative control.
The compounds were administered daily i.n. or i.p. in different doses 2 days before provocative test and up to the completion of the test.

[2] = tested on: mouse T-cell hybridoma 13; test: Assay of inhibition of mouse T-cell hybridoma 13 proliferation as a result of apoptose induction; assay type: cell-based; conditions: [3H] thymidine incorporation
Description: Assay of Inhibition of Mouse T-Cell Hybridoma 13 Proliferation as a Result of Apoptose Induction
In a 96-well plate triplicates of test steroid dilution in RPMI medium (Immunoloski zavod) with […] were performed. To the solutions of compounds 20 000 cells per well were added and incubated overnight at 37° C. in an atmosphere with 5% CO2, then 1 μCi of [^3H] thymidine (Pharmacia) was added and it was incubated for additional 3 hours. The cells were harvested by sucking over GF/C filter (Packard). Onto each well 30 μl of Microscynt O scintillation liquid (Packard) were added and the incorporated radioactivity was measured on a β-scintillation counter (Packard). The specifity of apoptose induction by glucocorticoids was proven by antagonising the proliferation inhibition with mifepristone (Sigma).

CC[C@H]1OC(=O)[C@H](C)[C@@H](O[C@@H]2C[C@](C)(OC)[C@H](O)C(C)O2)[C@H](C)[C@@H](O[C@@H]2O[C@H](C)C[C@@H](N(C)C)[C@H]2O)[C@](C)(O)C[C@@H](C)CN(CCCNC(=O)[C@@]2(O)CCC3C4CCC5=CC(=O)CC[C@]5(C)C4[C@@H](O)C[C@@]32C)[C@H](C)[C@@H](O)[C@]1(C)O (stereo partly drawn) [Compound 8]
melting point: 144 °C
number of eosinophiles in the lung rinse with regard to the positive control [1]: statistically significantly (t-test, p<0.05) reduced
inhibition of cell hybridoma 13 proliferation [2]: demonstrated an inhibition
